Measured values from article PMC12860872, “Preclinical evaluation of DOTAGA.Glu.(FAPI)2 and DO3A.Glu.(FAPI)2 as theranostics with human dosimetry extrapolation to lutetium-177 and terbium-161 analogs” (European Journal of Nuclear Medicine and Molecular Imaging, 2025).

System: PC3-mice
Test: Biodistribution in PC3-mice incl. blocking
Type: in vivo, mouse
Details: PC3-mice
Experimental: Male athymic Balb/C nude mice (6 weeks/20–25 g) were implanted with PC3 cells (3.5 × 10^6/100 µL PBS) into their right shoulder to develop tumors. The animals were used for biodistribution and PET/SPECT/CT imaging studies, once tumors reached 250–300 mm^3.
All mice were euthanized with intraperitoneal injection of pentobarbital (150 mg/kg), and selected organs were dissected, weighed, and measured for radioactivity using a gamma-counter. Results are expressed as % injected activity per gram tissue (% I.A./g), presented as mean ± SD (n = 3–4).

[1] = Blocking 4h (20 nmol unlabeled precursor)

Uptake in Adrenal (4 h p.i.): 3.7±1 %I.A./g
Uptake in Blood (4 h p.i.): 2.3±0.3 %I.A./g
Uptake in Bone (4 h p.i.): 5.2±0.2 %I.A./g
Uptake in Heart (4 h p.i.): 1.2±0.5 %I.A./g
Uptake in Intestine (4 h p.i.): 0.9±0.4 %I.A./g
Uptake in Kidney (4 h p.i.): 1.5±0.4 %I.A./g
Uptake in Liver (4 h p.i.): 1.7±0.1 %I.A./g
Uptake in Lung (4 h p.i.): 1.6±0.02 %I.A./g
Uptake in Muscle (4 h p.i.): 1.9±0.3 %I.A./g
Uptake in Pancreas (4 h p.i.): 2.3±0.4 %I.A./g
Uptake in Salivary glands (4 h p.i.): 8.2±1.3 %I.A./g
Uptake in Spleen (4 h p.i.): 1.2±0.1 %I.A./g
Uptake in Stomach (4 h p.i.): 0.9±0.2 %I.A./g
Uptake in Tumor (4 h p.i.): 15±1.3 %I.A./g
Uptake in Adrenal (24 h p.i.): 1.5±0.2 %I.A./g
Uptake in Blood (24 h p.i.): 0.9±0.1 %I.A./g
Uptake in Bone (24 h p.i.): 2±0.1 %I.A./g
Uptake in Gallbladder (24 h p.i.): 1.3±0.03 %I.A./g
Uptake in Heart (24 h p.i.): 0.4±0.03 %I.A./g
Uptake in Intestine (24 h p.i.): 0.4±0.1 %I.A./g
Uptake in Kidney (24 h p.i.): 0.9±0.1 %I.A./g
Uptake in Liver (24 h p.i.): 1.7±0.2 %I.A./g
Uptake in Lung (24 h p.i.): 0.6±0.03 %I.A./g
Uptake in Muscle (24 h p.i.): 1±0.1 %I.A./g
Uptake in Pancreas (24 h p.i.): 1±0.05 %I.A./g
Uptake in Salivary glands (24 h p.i.): 3.9±0.3 %I.A./g
Uptake in Spleen (24 h p.i.): 0.8±0.05 %I.A./g
Uptake in Stomach (24 h p.i.): 0.4±0.03 %I.A./g
Uptake in Tumor (24 h p.i.): 7.5±1.2 %I.A./g
Uptake in Adrenal (48 h p.i.): 1.1±0.5 %I.A./g
Uptake in Blood (48 h p.i.): 0.2±0.03 %I.A./g
Uptake in Bone (48 h p.i.): 1±0.1 %I.A./g
Uptake in Gallbladder (48 h p.i.): 0.6±0.1 %I.A./g
Uptake in Heart (48 h p.i.): 0.1±0.01 %I.A./g
Uptake in Intestine (48 h p.i.): 0.1±0.04 %I.A./g
Uptake in Kidney (48 h p.i.): 0.4±0.1 %I.A./g
Uptake in Liver (48 h p.i.): 1.1±0.2 %I.A./g
Uptake in Lung (48 h p.i.): 0.2±0.1 %I.A./g
Uptake in Muscle (48 h p.i.): 0.4±0.04 %I.A./g
Uptake in Pancreas (48 h p.i.): 0.3±0.01 %I.A./g
Uptake in Salivary glands (48 h p.i.): 1.1±0.3 %I.A./g
Uptake in Spleen (48 h p.i.): 0.5±0.05 %I.A./g
Uptake in Stomach (48 h p.i.): 0.2±0.05 %I.A./g
Uptake in Tumor (48 h p.i.): 3.1 ± 0.5 %I.A./g
Uptake in Adrenal (72 h p.i.): 0.3±0.1 %I.A./g
Uptake in Blood (72 h p.i.): 0.06±0 %I.A./g
Uptake in Bone (72 h p.i.): 0.4±0.005 %I.A./g
Uptake in Gallbladder (72 h p.i.): 0.4±0.2 %I.A./g
Uptake in Heart (72 h p.i.): 0.04±0.01 %I.A./g
Uptake in Intestine (72 h p.i.): 0.05±0.01 %I.A./g
Uptake in Kidney (72 h p.i.): 0.2±0.02 %I.A./g
Uptake in Liver (72 h p.i.): 0.8±0.1 %I.A./g
Uptake in Lung (72 h p.i.): 0.1±0.01 %I.A./g
Uptake in Muscle (72 h p.i.): 0.1±0.01 %I.A./g
Uptake in Pancreas (72 h p.i.): 0.1±0.02 %I.A./g
Uptake in Salivary glands (72 h p.i.): 0.3±0.1 %I.A./g
Uptake in Spleen (72 h p.i.): 0.3±0.04 %I.A./g
Uptake in Stomach (72 h p.i.): 0.05±0 %I.A./g
Uptake in Tumor (72 h p.i.): 1.4±0.1 %I.A./g
Uptake in Adrenal (96 h p.i.): 0.2±0.1 %I.A./g
Uptake in Blood (96 h p.i.): 0.02±0.01 %I.A./g
Uptake in Bone (96 h p.i.): 0.3±0.1 %I.A./g
Uptake in Gallbladder (96 h p.i.): 0.1±0.02 %I.A./g
Uptake in Heart (96 h p.i.): 0.02±0.01 %I.A./g
Uptake in Intestine (96 h p.i.): 0.02±0.01 %I.A./g
Uptake in Kidney (96 h p.i.): 0.1±0.01 %I.A./g
Uptake in Liver (96 h p.i.): 0.7±0.1 %I.A./g
Uptake in Lung (96 h p.i.): 0.1±0.1 %I.A./g
Uptake in Muscle (96 h p.i.): 0.04±0 %I.A./g
Uptake in Pancreas (96 h p.i.): 0.03±0.01 %I.A./g
Uptake in Salivary glands (96 h p.i.): 0.1±0.03 %I.A./g
Uptake in Spleen (96 h p.i.): 0.4±0.05 %I.A./g
Uptake in Stomach (96 h p.i.): 0.03±0.01 %I.A./g
Uptake in Tumor (96 h p.i.): 1±0.03 %I.A./g
Uptake in Adrenal [1]: 0.3±0.04 %I.A./g
Uptake in Blood [1]: 0.2±0.04 %I.A./g
Uptake in Bone [1]: 0.4±0.1 %I.A./g
Uptake in Heart [1]: 0.1±0.01 %I.A./g
Uptake in Intestine [1]: 0.4±0.02 %I.A./g
Uptake in Kidney [1]: 2.8±0.2 %I.A./g
Uptake in Liver [1]: 1.1±0.01 %I.A./g
Uptake in Lung [1]: 0.5±0.1 %I.A./g
Uptake in Muscle [1]: 0.1±0.01 %I.A./g
Uptake in Pancreas [1]: 0.1±0.01 %I.A./g
Uptake in Salivary glands [1]: 0.3±0.01 %I.A./g
Uptake in Spleen [1]: 0.4±0.03 %I.A./g
Uptake in Stomach [1]: 0.2±0.1 %I.A./g
Uptake in Tumor [1]: 1.1±0.4 %I.A./g
tumor uptake (at 1 h p.i. as printed): ~ 15 %I.A./g
drop of tumor uptake (washed-out) (at 24 h vs 4 h p.i.): ~ 50%
SMILES: N#C[C@@H]1CC(F)(F)CN1C(=O)CNC(=O)c1ccnc2ccc(OCCCCNC(=O)CC[C@H](NC(=O)CN3CCN(CC(=O)[O-])CCN(CC(=O)[O-])CCN(CC(=O)[O-])CC3)C(=O)NCCCCOc3ccc4nccc(C(=O)NCC(=O)N5CC(F)(F)C[C@H]5C#N)c4c3)cc12.[177Lu+3] [[^177Lu]Lu-DO3A.Glu.(FAPI)2]
